Assay results reported in ChEMBL document CHEMBL1134574, “Synthesis and characterization of non-steroidal ligands for the glucocorticoid receptor: selective quinoline derivatives with prednisolone-equivalent functional activity” (J Med Chem, 2001).

Columns and labels:
[1] = target: T1, Androgen receptor (Homo sapiens, UniProt P10275); assay: Binding affinity for androgen receptor
T1 sequence (P10275 whole entry): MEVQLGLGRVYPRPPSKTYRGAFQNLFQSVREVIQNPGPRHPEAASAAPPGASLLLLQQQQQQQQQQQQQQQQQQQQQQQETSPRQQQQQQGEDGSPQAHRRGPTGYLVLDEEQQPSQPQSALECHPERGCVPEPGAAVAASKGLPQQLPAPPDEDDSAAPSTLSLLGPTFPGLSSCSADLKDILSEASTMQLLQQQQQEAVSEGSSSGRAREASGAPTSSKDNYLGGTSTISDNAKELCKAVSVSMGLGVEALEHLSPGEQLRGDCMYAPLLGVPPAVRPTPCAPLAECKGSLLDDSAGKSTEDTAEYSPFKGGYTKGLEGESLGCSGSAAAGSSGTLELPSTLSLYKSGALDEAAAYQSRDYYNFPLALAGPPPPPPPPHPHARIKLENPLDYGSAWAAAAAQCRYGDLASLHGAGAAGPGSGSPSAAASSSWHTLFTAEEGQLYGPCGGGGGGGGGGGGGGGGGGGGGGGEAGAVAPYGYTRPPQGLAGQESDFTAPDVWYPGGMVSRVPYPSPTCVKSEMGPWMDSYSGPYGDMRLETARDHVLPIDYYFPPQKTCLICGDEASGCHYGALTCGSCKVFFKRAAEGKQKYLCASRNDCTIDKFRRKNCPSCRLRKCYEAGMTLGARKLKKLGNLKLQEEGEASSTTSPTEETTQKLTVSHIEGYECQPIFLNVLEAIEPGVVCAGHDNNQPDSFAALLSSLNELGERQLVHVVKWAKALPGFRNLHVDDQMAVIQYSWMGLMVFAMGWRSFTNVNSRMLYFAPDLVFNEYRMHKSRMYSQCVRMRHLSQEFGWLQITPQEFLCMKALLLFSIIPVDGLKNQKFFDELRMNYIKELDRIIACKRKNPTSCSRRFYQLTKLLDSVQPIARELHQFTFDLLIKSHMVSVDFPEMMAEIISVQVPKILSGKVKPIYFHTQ

[2] = target: T2, Glucocorticoid receptor (Homo sapiens, UniProt P04150); assay: Glucocorticoid-induced aromatase activity in human skin fibroblasts; type: functional
T2 sequence (P04150 whole entry): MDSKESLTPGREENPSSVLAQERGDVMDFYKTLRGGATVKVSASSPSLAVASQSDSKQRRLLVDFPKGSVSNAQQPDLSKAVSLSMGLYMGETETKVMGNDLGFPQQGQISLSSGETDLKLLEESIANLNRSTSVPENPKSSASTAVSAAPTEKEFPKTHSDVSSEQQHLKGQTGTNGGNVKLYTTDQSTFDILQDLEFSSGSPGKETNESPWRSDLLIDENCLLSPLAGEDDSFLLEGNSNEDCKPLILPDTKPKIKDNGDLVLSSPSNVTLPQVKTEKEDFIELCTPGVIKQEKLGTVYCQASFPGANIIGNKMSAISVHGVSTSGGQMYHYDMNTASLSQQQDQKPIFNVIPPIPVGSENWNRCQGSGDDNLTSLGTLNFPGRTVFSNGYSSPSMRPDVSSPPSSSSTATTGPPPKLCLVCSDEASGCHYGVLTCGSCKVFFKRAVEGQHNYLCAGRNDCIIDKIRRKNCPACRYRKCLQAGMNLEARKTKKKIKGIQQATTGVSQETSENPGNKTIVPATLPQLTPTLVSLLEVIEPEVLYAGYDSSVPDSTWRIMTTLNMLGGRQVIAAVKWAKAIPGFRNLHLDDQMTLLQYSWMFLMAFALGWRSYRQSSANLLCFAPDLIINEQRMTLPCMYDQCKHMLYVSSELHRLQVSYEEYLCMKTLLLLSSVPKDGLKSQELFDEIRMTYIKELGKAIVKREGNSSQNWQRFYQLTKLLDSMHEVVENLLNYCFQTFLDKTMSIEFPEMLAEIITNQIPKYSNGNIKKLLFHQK

[3] = target: T2, Glucocorticoid receptor; assay: Displacement of [3H]- Dexamethasone from glucocorticoid receptor
[4] = target: Estrogen receptor (Homo sapiens, UniProt Q92731+P03372); assay: Binding affinity for estrogen receptor; type: protein assay
[5] = target: T2, Glucocorticoid receptor; assay: Transcriptional activation in CV-1 cells expressing glucocorticoid receptor; type: functional, cell-based
[6] = target: T2, Glucocorticoid receptor; assay: Repression activity of GR ligand with interleukin-6 receptor in native cell assay using Dexamethasone was determined as maximal potency; type: functional
[7] = target: T2, Glucocorticoid receptor; assay: Transcriptional repression activity in HEP G2 cells expressing glucocorticoid receptor compared to Dexamethasone; type: functional, cell-based, HepG2
[8] = target: T3, Mineralocorticoid receptor (Homo sapiens, UniProt P08235); assay: Binding affinity for mineralocorticoid receptor
T3 sequence (P08235 whole entry): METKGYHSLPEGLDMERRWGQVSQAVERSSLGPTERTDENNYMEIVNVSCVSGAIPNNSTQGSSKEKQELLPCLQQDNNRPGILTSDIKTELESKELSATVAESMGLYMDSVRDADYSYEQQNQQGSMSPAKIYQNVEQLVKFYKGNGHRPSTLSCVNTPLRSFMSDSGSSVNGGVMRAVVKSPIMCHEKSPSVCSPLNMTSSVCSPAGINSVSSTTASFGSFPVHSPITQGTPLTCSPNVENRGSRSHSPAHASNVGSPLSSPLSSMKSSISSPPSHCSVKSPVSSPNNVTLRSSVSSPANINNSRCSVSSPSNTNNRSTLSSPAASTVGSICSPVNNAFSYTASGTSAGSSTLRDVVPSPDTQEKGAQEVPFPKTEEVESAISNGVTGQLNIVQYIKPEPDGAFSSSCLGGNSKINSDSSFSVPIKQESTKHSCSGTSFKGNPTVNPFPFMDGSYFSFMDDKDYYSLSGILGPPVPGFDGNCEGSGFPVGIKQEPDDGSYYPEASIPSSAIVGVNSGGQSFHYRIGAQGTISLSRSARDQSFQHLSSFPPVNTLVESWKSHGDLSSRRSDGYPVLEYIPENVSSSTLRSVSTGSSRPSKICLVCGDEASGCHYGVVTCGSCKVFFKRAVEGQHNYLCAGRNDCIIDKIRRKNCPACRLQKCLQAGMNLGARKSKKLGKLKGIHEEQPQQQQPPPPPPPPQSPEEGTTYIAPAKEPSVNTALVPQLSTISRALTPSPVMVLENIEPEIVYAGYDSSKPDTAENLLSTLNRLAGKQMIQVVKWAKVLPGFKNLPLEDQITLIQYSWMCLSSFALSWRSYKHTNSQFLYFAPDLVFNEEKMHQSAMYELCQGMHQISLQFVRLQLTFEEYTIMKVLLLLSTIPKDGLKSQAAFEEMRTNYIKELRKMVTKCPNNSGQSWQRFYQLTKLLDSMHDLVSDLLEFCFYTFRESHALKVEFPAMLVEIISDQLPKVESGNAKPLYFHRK

[9] = target: T4, Progesterone receptor (Homo sapiens, UniProt P06401); assay: Binding affinity for progesterone receptor
T4 sequence (P06401 whole entry): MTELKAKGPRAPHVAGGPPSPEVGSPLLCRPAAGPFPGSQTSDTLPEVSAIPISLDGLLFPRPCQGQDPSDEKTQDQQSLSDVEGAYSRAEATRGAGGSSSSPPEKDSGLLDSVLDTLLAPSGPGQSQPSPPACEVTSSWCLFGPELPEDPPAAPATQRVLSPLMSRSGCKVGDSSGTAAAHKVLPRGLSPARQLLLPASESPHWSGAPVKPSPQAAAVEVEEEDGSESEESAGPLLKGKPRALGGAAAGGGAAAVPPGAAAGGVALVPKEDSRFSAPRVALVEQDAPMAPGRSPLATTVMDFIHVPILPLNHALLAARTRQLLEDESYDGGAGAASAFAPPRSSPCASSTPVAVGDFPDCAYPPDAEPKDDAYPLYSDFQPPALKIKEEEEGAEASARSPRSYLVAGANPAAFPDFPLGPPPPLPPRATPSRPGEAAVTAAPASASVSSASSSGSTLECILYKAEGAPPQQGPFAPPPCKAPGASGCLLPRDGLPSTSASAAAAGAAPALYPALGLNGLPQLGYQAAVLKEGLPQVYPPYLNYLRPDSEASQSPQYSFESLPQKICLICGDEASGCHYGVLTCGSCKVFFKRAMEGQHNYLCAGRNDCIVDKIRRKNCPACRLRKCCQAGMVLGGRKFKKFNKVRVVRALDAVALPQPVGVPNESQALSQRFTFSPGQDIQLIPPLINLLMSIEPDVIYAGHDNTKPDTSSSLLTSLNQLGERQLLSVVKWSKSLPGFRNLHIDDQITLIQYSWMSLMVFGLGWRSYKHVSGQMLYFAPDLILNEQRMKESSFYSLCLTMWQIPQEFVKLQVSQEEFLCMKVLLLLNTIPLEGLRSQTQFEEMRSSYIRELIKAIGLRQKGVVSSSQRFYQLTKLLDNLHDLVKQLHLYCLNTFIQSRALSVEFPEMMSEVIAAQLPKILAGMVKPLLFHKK

[10] = target: T2, Glucocorticoid receptor; assay: Binding affinity for glucocorticoid receptor
[11] = species on record: Rattus norvegicus; assay: Anti-asthmatic effect as eosinophil influx in rat lung model; type: functional
[12] = target: T2, Glucocorticoid receptor; assay: Transcriptional repression of IL-1 stimulated IL-6 expression in native cells compared to Dexamethasone; type: functional, cell-based

Row | Compound | Ki [1] [µM] | IC50 [2] [nM] | Ki [4] [nM] | IC50 [5] [nM] | IC50 [6] [nM] | IC50 [7] [nM] | Ki [8] [nM] | Ki [9] [µM] | Ki [10] [nM] | further results
1 | COc1cccc2c1-c1ccc3c(c1C(c1cccc(OC(=O)N(C)C)c1)O2)C(C)=CC(C)(C)N3 (stereo unspecified) | 3.07 | 216 | > 1000 | 12 | 26 | 6 | 3910 | > 5 |  | Ki [3]: 2.4 nM
2 | COc1cccc2c1-c1ccc3c(c1C(c1cc(Cl)cc(Cl)c1)O2)C(C)=CC(C)(C)N3 (stereo in doubt; 17) |  |  |  |  |  |  |  | > 5 |  | 
3 | COc1ccc2c(c1)OC(c1ccccc1)c1c-2ccc2c1C(C)=CC(C)(C)N2 (stereo unspecified) |  |  |  |  |  |  |  | > 5 | 1800 | 
4 | COc1cccc2c1-c1ccc3c(c1C(c1cc(Cl)cc(Cl)c1)O2)C(C)=CC(C)(C)N3 (stereo in doubt; (-)22) |  |  |  |  |  |  |  | 1.56 |  | 
5 | COc1cccc2c1-c1ccc3c(c1C(c1cc(C)cc(C)c1)O2)C(C)=CC(C)(C)N3 (stereo unspecified) |  | 146 |  | 24 | 9.2 | 18 |  |  |  | 
6 | C[C@]12C=CC(=O)C=C1CC[C@@H]1[C@@H]2[C@@H](O)C[C@@]2(C)[C@H]1CC[C@]2(O)C(=O)CO [PREDNISOLONE] |  |  | > 1000 |  |  |  | 37 |  |  | ED50 [11]: 1.2 mg/kg
7 | COc1ccc2c(c1)-c1ccc3c(c1C(c1ccccc1)O2)C(C)=CC(C)(C)N3 (stereo unspecified) |  |  |  |  |  |  |  | 0.39 | 18 | 
8 | CC1=CC(C)(C)Nc2ccc3c(c21)C(c1ccccc1)Oc1ccc(Cl)cc1-3 (stereo unspecified) | 1.4 |  | > 1000 |  |  |  | 1100 | 0.053 | 9.3 | 

Continued, in another order:

Row | Ki [1] [µM] | IC50 [2] [nM] | Ki [4] [nM] | IC50 [5] [nM] | IC50 [6] [nM] | IC50 [7] [nM] | Ki [8] [nM] | Ki [9] [µM] | Ki [10] [nM] | Compound | further results
9 | 2.66 | 164 | > 1000 | 300 | 51 | 123 | 1680 | > 5 | 4.7 | COc1cccc2c1-c1ccc3c(c1C(c1ccccc1)O2)C(C)=CC(C)(C)N3 (stereo in doubt; 10) | 
10 |  | 56 |  | 10 | 11 | 9 |  |  |  | COc1cccc2c1-c1ccc3c(c1C(c1cc(F)cc(F)c1)O2)C(C)=CC(C)(C)N3 (stereo unspecified) | 
11 |  | 314 |  | 29 | 12 | 18 |  |  |  | COc1cccc2c1-c1ccc3c(c1C(c1cc(C)cc(Br)c1)O2)C(C)=CC(C)(C)N3 (stereo unspecified) | 
12 | > 5 |  |  |  |  |  | > 5000 | > 5 | 240 | COc1cccc2c1-c1ccc3c(c1C(c1ccccc1)O2)C(C)=CC(C)(C)N3 (stereo in doubt; (+)19) | 
13 |  |  |  |  |  |  |  | > 5 | 2.1 | COc1cccc2c1-c1ccc3c(c1C(c1ccccc1)O2)C(C)=CC(C)(C)N3 (single isomer, unassigned; (-)) | IC50 [12]: 30 nM
14 | 3.36 | 105 | > 1000 | 44 | 32 | 57 | 493 |  | 11 | COc1cccc2c1-c1ccc3c(c1C(c1cccc(C(F)(F)F)c1)O2)C(C)=CC(C)(C)N3 (stereo unspecified) | 
15 |  | 131 |  | 28 | 49 | 23 |  |  |  | COCOc1cccc(C2Oc3cccc(OC)c3-c3ccc4c(c32)C(C)=CC(C)(C)N4)c1 (stereo unspecified) | 
16 | > 5 |  |  |  |  |  | > 5000 | > 5 |  | COc1cccc2c1-c1ccc3c(c1C(c1cc(Cl)cc(Cl)c1)O2)C(C)=CC(C)(C)N3 (single isomer, unassigned; (+)) | 
